{"source": "paper PMC9584815", "about": "“The aldolase inhibitor aldometanib mimics glucose starvation to activate lysosomal AMPK” (Nature Metabolism, 2022)", "key": {"rabbit aldolase (ALDOA)": {"target": "T1, rabbit aldolase (ALDOA) (Oryctolagus cuniculus, UniProt P00883)", "T1 construct": "rabbit aldolase (ammonium sulfate precipitated; A8811)", "T1 sequence (P00883 2-364)": "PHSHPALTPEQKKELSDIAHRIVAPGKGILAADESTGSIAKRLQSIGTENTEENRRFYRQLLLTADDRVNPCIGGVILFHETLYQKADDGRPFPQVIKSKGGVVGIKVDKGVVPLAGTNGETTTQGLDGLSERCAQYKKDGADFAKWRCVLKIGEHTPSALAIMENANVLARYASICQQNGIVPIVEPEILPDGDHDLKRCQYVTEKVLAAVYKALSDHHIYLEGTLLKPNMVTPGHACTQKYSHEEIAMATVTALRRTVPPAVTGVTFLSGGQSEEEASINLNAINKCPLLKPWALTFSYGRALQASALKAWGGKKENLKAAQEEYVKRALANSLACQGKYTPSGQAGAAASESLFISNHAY", "experiment": "SPR (CM5 chip, Biacore 8K); also MS adduct on Lys230 and enzymatic inhibition (IC50 about […])", "type": "binding"}, "ALDOA": {"target": "T2, ALDOA (Homo sapiens, UniProt P04075)", "T2 construct": "full-length, His-tagged, bacterially expressed and purified", "T2 sequence (P04075 2-364)": "T1 sequence (P00883 2-364) with H2Y, S3Q, H4Y, Y243F, V267I, I358V", "experiment": "aldolase/TPI/GPDH-coupled NADH assay", "type": "biochemical"}}, "note": "Where a chain is given by its changes, count along the chain named."}
{"compound": "CCCCCCCCCCCCCCCCn1cc[n+](Cc2c(Cl)cccc2Cl)c1C", "note": "[LXY-05-029, aldometanib]", "values": [{"measurement": "Kd", "setting": "rabbit aldolase (ALDOA)", "value": "~20", "unit": "µM"}, {"measurement": "IC50", "setting": "ALDOA", "value": "~50", "unit": "µM"}]}
